“And” between values parts separate entries of the source, which are not always exact repeats. Equal entries are not always repeated. Where a SMILES comes first, the peptide text is derived from it. [ ]: non-standard residue; d: D form. Hyp = O=C(O)[C@@H]1C[C@@H](O)CN1
Legend:
CCL3/MIP-1 alpha = assay: Example 9 Luminex, LPS hPBMCs: CCL3/MIP-1 alpha; type: cell-based, human
Procedure: (§1) Treatment Human PBMCs were pretreated with YY-101, YDE-011 and YDE-043 or reference compound; Xiidra® at various concentration (ranging from 1 nM to 100 uM) for 2 h before stimulation. An equal volume of 0.5% DMSO was used as a vehicle control. Then, the cells were treated with LPS at 5 ug/ml. The supernatants from treated cells were harvested at 24 h and placed in a 96 well for Luminex cytokine & chemokine profiling using a Luminex 200 multiplex assay (Luminex; R&D system, USA).
(§2) The main study arm with triplicate wells per group in a 24-well plate: • 1. Blank • 2. PBMC: 0.5% DMSO • 3. PBMC+LPS (5 ug/ml) • 4. PBMC+YY-101 100 uM • 5. PBMC+YY-101 10 uM • 6. PBMC+YY-101 1 uM • 7. PBMC+YY-101 0.1 uM • 8. PBMC+YY-101 0.01 uM • 9. PBMC+LPS (5 ug/ml)+Xiidra®100 uM • 10. PBMC+LPS (5 ug/ml)+Xiidra® 10 uM • 11. PBMC+LPS (5 ug/ml)+Xiidra® 1 uM • 12. PBMC+LPS (5 ug/ml)+Xiidra®0.1 uM • 13. PBMC+LPS (5 ug/ml)+Xiidra®0.01 uM • 14. PBMC+LPS (5 ug/ml)+Xiidra®0.001 uM • 15. PBMC+LPS (5 ug/ml)+YY-101 100 uM • 16. PBMC+LPS (5 ug/ml)+YY-101 10 uM • 17. PBMC+LPS (5 ug/ml)+YY-101 1 uM • 18. PBMC+LPS (5 ug/ml)+YY-101 0.1 uM • 19. PBMC+LPS (5 ug/ml)+YY-101 0.01 uM • 20. PBMC+LPS (5 ug/ml)+YY-101 0.001 uM • 21. PBMC+LPS (5 ug/ml)+YDE-011 100 uM • 22. PBMC+LPS (5 ug/ml)+YDE-011 10 uM • 23. PBMC+LPS (5 ug/ml)+YDE-011 1 uM • 24. PBMC+LPS (5 ug/ml)+YDE-011 0.1 uM • 25. PBMC+LPS (5 ug/ml)+YDE-011 0.01 uM • 26. PBMC+LPS (5 ug/ml)+YDE-011 0.001 uM • 27. PBMC+LPS (5 ug/ml)+YDE-043 100 uM • 28. PBMC+LPS (5 ug/ml)+YDE-043 10 uM • 29. PBMC+LPS (5 ug/ml)+YDE-043 1 uM • 30. PBMC+LPS (5 ug/ml)+YDE-043 0.1 uM • 31. PBMC+LPS (5 ug/ml)+YDE-043 0.01 uM • 32. PBMC+LPS (5 ug/ml)+YDE-043 0.001 uM
(§3) Multiplex assay was used to measure 30 cytokines and chemokines. The 1:2, 1:10 and 1:200 diluted cell supernatant and serial dilution of the standard were dispensed into a 96 well plate at 50 ul/well. Then, the pre-mixed cocktail of antibody-coated magnetic beads was dispensed at 50 ul/well and incubated at room temperature for 2 h in a horizontal orbital microplate shaker at 800±500 rpm. The beads were washed using a magnetic device to prevent loss. The biotin-antibody was dispensed in 50 ul of each well and incubated at room temperature for 1 h in a shaker at 800±500 rpm. After washing, streptavidin-PE was added at 50 ul/well and incubated at room temperature for 30 min in a shaker under the same conditions. Finally, after washing, wash buffer (100 ul/well) was added to the plate and incubated in a shaker for 2 min. The Luminex™ 200 setting were set according to the manufacturer's protocol. The data was calculated with a standard five-parameter logistic nonlinear regression analysis of the data (xPonent software 4.2, USA). The levels of cytokine/chemokine are normalized to the live cell counts (1×10^5 cells/mL) and presented as concentrations per mL (pg/mL or ng/mL).

CCL4/MIP-1 beta = assay: Example 9 Luminex, LPS hPBMCs: CCL4/MIP-1 beta; type: cell-based, human; conditions: for Concentration (CCL4/MIP-1 beta) / conc/live cell (CCL4/MIP-1 beta) / MFI (Bead name: CCL4/MIP-1 beta): PBMC + LPS(5 ug/ml); for MFI (Bead name: CCL4/MIP-1 beta): dilution 10
Procedure: as §1, §2, §3

[1] = PBMC + LPS(5 ug/ml) + test article 0.001 uM, Mean
[2] = PBMC + LPS(5 ug/ml) + test article 0.001 uM, individual replicates
[3] = PBMC + LPS(5 ug/ml) + test article 0.01 uM, Mean
[4] = PBMC + LPS(5 ug/ml) + test article 0.01 uM, individual replicates
[5] = PBMC + LPS(5 ug/ml) + test article 0.1 uM, Mean
[6] = PBMC + LPS(5 ug/ml) + test article 0.1 uM, individual replicates
[7] = PBMC + LPS(5 ug/ml) + test article 1 uM, Mean
[8] = PBMC + LPS(5 ug/ml) + test article 1 uM, individual replicates
[9] = PBMC + LPS(5 ug/ml) + test article 10 uM, Mean
[10] = PBMC + LPS(5 ug/ml) + test article 10 uM, individual replicates
[11] = PBMC + LPS(5 ug/ml) + test article 100 uM, Mean
[12] = PBMC + LPS(5 ug/ml) + test article 100 uM, individual replicates
[13] = PBMC + test article 1 uM, no LPS, Mean
[14] = PBMC + test article 1 uM, no LPS, individual replicates
[15] = PBMC + test article 10 uM, no LPS, Mean
[16] = PBMC + test article 10 uM, no LPS, individual replicates
[17] = PBMC + test article 100 uM, no LPS, Mean
[18] = PBMC + test article 100 uM, no LPS, individual replicates
[19] = test article 0.001 uM, single replicates

CC(C)C[C@H](NC(=O)CNC(=O)[C@H](CC(=O)O)NC(=O)[C@H](CCC(N)=O)NC(=O)CNC(=O)[C@@H]1C[C@@H](O)CN1)C(=O)N[C@@H](C)C(=O)NCC(=O)N1CCC[C@H]1C(=O)N[C@@H](CCCCN)C(=O)O [YY-101] (H-[Hyp]GQDGLAGPK-OH; N-terminus and C-terminus assumed)
Concentration (CCL3/MIP-1 alpha; [1]): 26885.9 pg/mL | conc/live cell (CCL3/MIP-1 alpha; [1]): 4200.1 pg/10^5 | Concentration (CCL3/MIP-1 alpha; [2]): 27986.1 pg/mL and 27195.8 pg/mL and 25475.7 pg/mL | conc/live cell (CCL3/MIP-1 alpha; [2]): 4909.8 pg/10^5 and 3830.4 pg/10^5 and 3860.0 pg/10^5 | Concentration (CCL3/MIP-1 alpha; [3]): 28932.4 pg/mL | conc/live cell (CCL3/MIP-1 alpha; [3]): 4694.7 pg/10^5 | Concentration (CCL3/MIP-1 alpha; [4]): 29329.0 pg/mL and 29395.7 pg/mL and 28072.3 pg/mL | conc/live cell (CCL3/MIP-1 alpha; [4]): 4582.7 pg/10^5 and 4899.3 pg/10^5 and 4602.0 pg/10^5 | Concentration (CCL3/MIP-1 alpha; [5]): 28457.4 pg/mL | conc/live cell (CCL3/MIP-1 alpha; [5]): 4886.3 pg/10^5 | Concentration (CCL3/MIP-1 alpha; [6]): 28362.4 pg/mL and 28665.1 pg/mL and 28344.5 pg/mL | conc/live cell (CCL3/MIP-1 alpha; [6]): 4574.6 pg/10^5 and 5512.5 pg/10^5 and 4571.7 pg/10^5 | Concentration (CCL3/MIP-1 alpha; [7]): 28059.0 pg/mL | conc/live cell (CCL3/MIP-1 alpha; [7]): 4314.1 pg/10^5 | Concentration (CCL3/MIP-1 alpha; [8]): 28714.8 pg/mL and 27440.0 pg/mL and 28022.0 pg/mL | conc/live cell (CCL3/MIP-1 alpha; [8]): 4557.9 pg/10^5 and 3864.8 pg/10^5 and 4519.7 pg/10^5 | Concentration (CCL3/MIP-1 alpha; [9]): 29972.3 pg/mL | conc/live cell (CCL3/MIP-1 alpha; [9]): 4549.0 pg/10^5 | Concentration (CCL3/MIP-1 alpha; [10]): 30117.5 pg/mL and 30769.7 pg/mL and 29029.8 pg/mL | conc/live cell (CCL3/MIP-1 alpha; [10]): 5019.6 pg/10^5 and 4807.8 pg/10^5 and 3819.7 pg/10^5 | Concentration (CCL3/MIP-1 alpha; [11]): 33310.8 pg/mL | conc/live cell (CCL3/MIP-1 alpha; [11]): 5765.5 pg/10^5 | Concentration (CCL3/MIP-1 alpha; [12]): 35374.6 pg/mL and 31775.7 pg/mL and 32782.2 pg/mL | conc/live cell (CCL3/MIP-1 alpha; [12]): 5615.0 pg/10^5 and 5125.1 pg/10^5 and 6556.4 pg/10^5 | conc/live cell (CCL3/MIP-1 alpha; PBMC + test article 0.01 uM, no LPS, Mean): 0.0 pg/10^5 | conc/live cell (CCL3/MIP-1 alpha; PBMC + test article 0.1 uM, no LPS, Mean): 0.0 pg/10^5 | Concentration (CCL3/MIP-1 alpha; [13]): 588.0 pg/mL | conc/live cell (CCL3/MIP-1 alpha; [13]): 53.5 pg/10^5 | Concentration (CCL3/MIP-1 alpha; [14]): 588.0 pg/mL | conc/live cell (CCL3/MIP-1 alpha; [14]): 106.9 pg/10^5 and 0.0 pg/10^5 | Concentration (CCL3/MIP-1 alpha; [15]): 1997.0 pg/mL | conc/live cell (CCL3/MIP-1 alpha; [15]): 156.0 pg/10^5 | Concentration (CCL3/MIP-1 alpha; [16]): 1997.0 pg/mL | conc/live cell (CCL3/MIP-1 alpha; [16]): 312.0 pg/10^5 and 0.0 pg/10^5 | Concentration (CCL3/MIP-1 alpha; [17]): 1030.2 pg/mL | conc/live cell (CCL3/MIP-1 alpha; [17]): 80.5 pg/10^5 | Concentration (CCL3/MIP-1 alpha; [18]): 1030.2 pg/mL | conc/live cell (CCL3/MIP-1 alpha; [18]): 161.0 pg/10^5 and 0.0 pg/10^5 | LPS-induced CCL4 (in words) (CCL4/MIP-1 beta; LPS 5 ug/mL 24 hrs, 100 uM to 1 nM): significantly reduced | Concentration (CCL4/MIP-1 beta) (CCL4/MIP-1 beta; test article 0.001 uM, Mean): 13975.6 pg/mL | conc/live cell (CCL4/MIP-1 beta) (CCL4/MIP-1 beta; test article 0.001 uM, Mean): 2183.3 pg/10^5 | MFI (Bead name: CCL4/MIP-1 beta) (CCL4/MIP-1 beta; test article 0.001 uM, Mean): 515.8 | MFI (Bead name: CCL4/MIP-1 beta) (CCL4/MIP-1 beta; [19]): 551.5 and 527.0 and 469.0 | Concentration (CCL4/MIP-1 beta) (CCL4/MIP-1 beta; [19]): 14562.9 pg/mL and 14163.0 pg/mL and 13200.9 pg/mL | conc/live cell (CCL4/MIP-1 beta) (CCL4/MIP-1 beta; [19]): 2554.9 pg/10^5 and 1994.8 pg/10^5 and 2000.1 pg/10^5 | Concentration (CCL4/MIP-1 beta) (CCL4/MIP-1 beta; test article 0.01 uM, Mean): 15170.0 pg/mL | conc/live cell (CCL4/MIP-1 beta) (CCL4/MIP-1 beta; test article 0.01 uM, Mean): 2461.1 pg/10^5 | MFI (Bead name: CCL4/MIP-1 beta) (CCL4/MIP-1 beta; test article 0.01 uM, Mean): 589.2 | MFI (Bead name: CCL4/MIP-1 beta) (CCL4/MIP-1 beta; test article 0.01 uM, single replicates): 611.0 and 596.5 and 560.0
